Laboratory results reported in US20050070480A1, “Peptide arginals and methods for treating disseminated intravascular coagulation” (priority 2001, published 2005).
Where two headings read alike, the source gives them in different places.

Tested on: endotoxin-treated rabbits
Format: in vivo, rabbit
Details: endotoxin-treated rabbits

Molecule	Lethality %, 2 hrs (0.5 mg/kg/h infusion)	Lethality no. died/treated animals, 2 hrs (0.5 mg/kg/h infusion)	Lethality %, 4 hrs (0.5 mg/kg/h infusion)	Lethality no. died/treated animals, 4 hrs (0.5 mg/kg/h infusion)	Increase in lethality (relative to endotoxin alone)	Lethality %, 2 hrs (50 U/kg/h)	Lethality no. died/treated animals, 2 hrs (50 U/kg/h)	Lethality %, 4 hrs (50 U/kg/h)	Lethality no. died/treated animals, 4 hrs (50 U/kg/h)	Lethality %, 2 hrs (100 U/kg/h)	Lethality no. died/treated animals, 2 hrs (100 U/kg/h)	Lethality %, 4 hrs (100 U/kg/h)	Lethality no. died/treated animals, 4 hrs (100 U/kg/h)
N=C(N)NCCC[C@@H](C=O)NC(=O)[C@@H]1CCCN1C(=O)C(O)CCc1ccccc1 (stereo partly drawn) [Compound C3, hPla-Pro-Arg-H]	6%	1/18	56%	10/18	~1.8 fold								
heparin						0%	0/17	35%	6/17	0%	0/19	37%	7/19
